Measurements taken from the NIST ThermoML archive (doi:10.1021/je900027h).
± gives the expanded uncertainty stated by the source.

Details: Crystal; DTA

c1ccc2c(c1)ccc1ccccc12 [phenanthrene]
Normal melting temperature: 104.92 ± 0.5 °C
